Measured values: patent US8759535B2, “Substituted fused imidazole derivatives, pharmaceutical compositions, and methods of use thereof” (High Point Pharmaceuticals, LLC, priority 2010, dated 2014)

These compounds were tested on HMOX1 (assay: HMOX1 Protein Assay (immunostaining of HO-1 in NHLF cells, GE InCell 1000)). Conditions: Homo sapiens, fold change above DMSO treated cells, 3 μM compound (asterisk), 16 h.
Type: cell-based
In short: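 Fold induction of HO-1 over vehicle, normally at 5 μM compound (asterisk marks 3 μM), in 0.8% DMSO medium. Normal human lung fibroblasts were treated 16 h, then paraformaldehyde-fixed, anti-HO-1/Alexa 488 stained with Hoechst, and read by high-content imaging.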

`CO[C@@H]1CCN(C(=O)CNC(=O)c2ccc3c(c2)nc(Nc2nc4ccc(Cl)cc4s2)n3C)C1` [Example 408, 2-(6-Chloro-benzothiazol-2-ylamino)-1-methyl-1H-benzoimidazole-5-carboxylic acid [2-((R)-3-methoxy-pyrrolidin-1-yl)-2-oxo-ethyl]-amide] showed a fold induction at 3 µM of 25.

Same assay, conditions: Homo sapiens, fold change above DMSO treated cells, 5 μM compound, 16 h

First: CN(C)C(=O)CNC(=O)c1ccc2c(c1)nc(Nc1nc3ccc(C(F)(F)F)cc3s1)n2C [Example 134, 1-Methyl-2-(6-trifluoromethyl-benzothiazol-2-ylamino)-1H-benzimidazole-5-carboxylic acid dimethylcarbamoylmethyl-amide]
Second: CCNC(=O)c1ccc2c(c1)nc(Nc1nc3ccc(C(F)(F)F)cc3s1)n2CC [Example 181, 1-Ethyl-2-(6-trifluoromethyl-benzothiazol-2-ylamino)-1H-benzoimidazole-5-carboxylic acid ethylamide]
The fold induction at 5 µM of the first is higher: 54.5 for the first, 23 for the second.

Going from `Cn1c(Nc2nc3ccc(OC(F)(F)F)cc3s2)nc2cc(C(=O)NC[C@H]3CC[C@H](O)CC3)ccc21` [Example 232, 1-Methyl-2-(6-trifluoromethoxy-benzothiazol-2-ylamino)-1H-benzoimidazole-5-carboxylic acid (trans-4-hydroxy-cyclohexylmethyl)-amide] to `Cn1c(Nc2nc3ccc(OC(F)(F)F)cc3s2)nc2cc(C(=O)NCCF)ccc21` [Example 9, 1-Methyl-2-(6-trifluoromethoxy-benzothiazol-2-ylamino)-1H-benzoimidazole-5-carboxylic acid (2-fluoro-ethyl)-amide], the fold induction at 5 µM falls from 33 to 11.2.

First: Cn1c(Nc2nc3ccc(OC(F)(F)F)cc3s2)nc2cc(C(=O)N[C@@H]3[C@@H](O)[C@H](O)[C@@H](CO)O[C@@H]3O)ccc21 [Example 283, 1-Methyl-2-(6-trifluoromethoxy-benzothiazol-2-ylamino)-1H-benzoimidazole-5-carboxylic acid ((2S,3R,4R,5S,6R)-2,4,5-trihydroxy-6-hydroxymethyl-tetrahydro-pyran-3-yl)-amide]
Second: Cn1c(Nc2nc3ccc(OC(F)(F)F)cc3s2)nc2cc(C(=O)NCCS(C)(=O)=O)ccc21 [Example 102, 1-Methyl-2-(6-trifluoromethoxy-benzothiazol-2-ylamino)-1H-benzoimidazole-5-carboxylic acid (2-methanesulfonyl-ethyl)-amide]
The fold induction at 5 µM of the first is higher: 30.2 for the first, 22.6 for the second.

Going from `Cc1nc(-c2ccc3nc(Nc4nc5cc(OC(F)(F)F)ccc5s4)n(C)c3c2)n[nH]1` [Example 198, [1-Methyl-6-(5-methyl-1H-1,2,4-triazol-3-yl)-1H-benzimidazol-2-yl]-(5-trifluoromethoxy-benzothiazol-2-yl)-amine] to `CNC(=O)c1ccc2c(c1)nc(Nc1nc3ccc(OC(F)(F)F)cc3s1)n2CCF` [Example 170, 1-(2-Fluoro-ethyl)-2-(6-trifluoromethoxy-benzothiazol-2-ylamino)-1H-benzoimidazole-5-carboxylic acid methylamide], the fold induction at 5 µM rises from 12 to 23.

First: CN(C)CC1CCN(C(=O)CNC(=O)c2ccc3c(c2)nc(Nc2nc4ccc(OC(F)(F)F)cc4s2)n3C)CC1 [Example 458, 1-Methyl-2-(6-trifluoromethoxy-benzothiazol-2-ylamino)-1H-benzoimidazole-5-carboxylic acid [2-(4-dimethylaminomethyl-piperidin-1-yl)-2-oxo-ethyl]-amide]
Second: Cn1c(Nc2nc3ccc(OC(F)(F)F)cc3s2)nc2cc(C(=O)NCCOCCCF)ccc21 [Example 247, 1-Methyl-2-(6-trifluoromethoxy-benzothiazol-2-ylamino)-1H-benzoimidazole-5-carboxylic acid [2-(3-fluoro-propoxy)-ethyl]-amide]
The fold induction at 5 µM of the first is higher: 68.5 for the first, 28.3 for the second.

Compound `Cn1c(Nc2nc3ccc(OC(F)(F)F)cc3s2)nc2cc(C(=O)NCCOCCC#N)ccc21` [Example 265, 1-Methyl-2-(6-trifluoromethoxy-benzothiazol-2-ylamino)-1H-benzoimidazole-5-carboxylic acid [2-(2-cyano-ethoxy)-ethyl]-amide] has a fold induction at 5 µM of 55.
